Test results from ChEMBL document CHEMBL1201862, “PubChem BioAssay data set” (2004).
Calls of active or inactive are those of the source. Cut-off read from the data, not from the text of the source, for most assays here: actives have a measured EC50 and inactives only a lower limit.

Columns and labels:
[1] = biological target: Cytochrome P450 2C9 (Homo sapiens, UniProt P11712)
[2] = biological target: Cytochrome P450 2D6 (Homo sapiens, UniProt P10635);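 note: CYP2D6 member of a cytochrome P450 panel assay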
[3] = Trypanosoma cruzi growth suppression in host cells – NIH3T3 host cells, beta-gal luminescence, confirmation (AID 2044); type: functional, cell-based;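 note: intracellular parasites grown in NIH/3T3 mouse fibroblasts as host cells; luminescent beta-galactosidase reporter signal from transgenic T. cruzi replicating inside host cells; inhibitors lower the luminescence signal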
[4] = NIH3T3 cell viability loss – ATP luminescence, mouse fibroblasts, counter-screen, dose response (AID 2010); type: functional, cell-based;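 note: cells exposed to compound for about 90 hours before reading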
[5] = biological target: Cytochrome P450 3A4 (Homo sapiens, UniProt P08684);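 note: CYP3A4 tested as one member of a cytochrome P450 panel screen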
[6] = system: Streptococcus sp. 'group A'; assay: Streptococcus pyogenes SK(-)GAS viability under kanamycin – luminescence, BacTiterGlo, confirmation, counter-screen for streptokinase expression inhibitor project, dose response (AID 1900); type: functional, organism-based
[7] = biological target: T1, Streptokinase A (Streptococcus pyogenes serotype M1, UniProt P10520); assay: viability-normalized secreted streptokinase activity reduction – plasminogen activation absorbance, OD405, dose response (AID 1914); type: functional, Streptococcus pyogenes M1 GAS;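 note: secreted streptokinase activity via plasminogen activation per viability signal from cell pellet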
T1 sequence (P10520 whole entry): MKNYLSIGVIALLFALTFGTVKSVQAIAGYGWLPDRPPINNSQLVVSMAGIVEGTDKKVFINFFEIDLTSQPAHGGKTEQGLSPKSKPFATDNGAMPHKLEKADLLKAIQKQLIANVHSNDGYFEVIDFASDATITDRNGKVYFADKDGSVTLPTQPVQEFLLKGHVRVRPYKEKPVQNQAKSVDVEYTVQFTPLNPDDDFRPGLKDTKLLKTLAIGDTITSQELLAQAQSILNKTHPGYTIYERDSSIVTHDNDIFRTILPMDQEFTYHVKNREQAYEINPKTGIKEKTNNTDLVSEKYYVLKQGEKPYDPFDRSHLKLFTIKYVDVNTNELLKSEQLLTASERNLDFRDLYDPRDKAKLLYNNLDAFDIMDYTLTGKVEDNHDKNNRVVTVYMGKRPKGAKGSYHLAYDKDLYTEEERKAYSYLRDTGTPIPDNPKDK

[8] = system: Streptococcus; assay: GAS UMAA2166 growth inhibition – luminescence, BacTiterGlo, counter-screen for streptokinase expression inhibitor project, dose response (AID 1915); type: functional, organism-based;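 note: potency for reduction of bacterial viability or growth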

Sequence of Cytochrome P450 2D6 (P10635 whole entry): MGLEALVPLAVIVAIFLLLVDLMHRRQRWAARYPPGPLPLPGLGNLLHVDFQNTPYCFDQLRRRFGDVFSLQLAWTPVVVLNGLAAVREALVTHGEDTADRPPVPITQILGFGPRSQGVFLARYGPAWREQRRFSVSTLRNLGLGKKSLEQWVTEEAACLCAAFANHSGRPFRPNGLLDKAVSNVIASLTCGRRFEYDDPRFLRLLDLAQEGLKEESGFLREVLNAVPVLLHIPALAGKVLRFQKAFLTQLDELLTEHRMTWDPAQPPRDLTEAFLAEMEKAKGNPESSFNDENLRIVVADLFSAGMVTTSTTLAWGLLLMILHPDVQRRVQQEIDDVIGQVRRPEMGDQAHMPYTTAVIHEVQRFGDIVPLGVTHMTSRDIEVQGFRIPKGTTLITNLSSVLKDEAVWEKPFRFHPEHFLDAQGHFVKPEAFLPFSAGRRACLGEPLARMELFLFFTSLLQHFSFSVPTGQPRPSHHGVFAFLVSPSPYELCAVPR
Sequence of Cytochrome P450 2C9 (P11712 whole entry): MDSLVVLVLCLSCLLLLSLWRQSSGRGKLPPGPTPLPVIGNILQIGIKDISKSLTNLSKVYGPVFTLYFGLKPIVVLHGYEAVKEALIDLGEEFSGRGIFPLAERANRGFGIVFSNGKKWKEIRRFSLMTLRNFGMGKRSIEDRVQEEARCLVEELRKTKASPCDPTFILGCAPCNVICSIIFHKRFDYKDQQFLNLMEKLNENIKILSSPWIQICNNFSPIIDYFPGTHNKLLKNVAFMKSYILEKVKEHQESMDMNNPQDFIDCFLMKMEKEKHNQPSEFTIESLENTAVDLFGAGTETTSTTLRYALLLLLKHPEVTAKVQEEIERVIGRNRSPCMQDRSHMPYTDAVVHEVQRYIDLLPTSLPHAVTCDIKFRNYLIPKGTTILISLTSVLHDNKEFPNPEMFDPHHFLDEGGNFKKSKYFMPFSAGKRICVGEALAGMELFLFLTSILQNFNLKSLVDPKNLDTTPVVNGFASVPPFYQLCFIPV
Sequence of Cytochrome P450 3A4 (P08684 whole entry): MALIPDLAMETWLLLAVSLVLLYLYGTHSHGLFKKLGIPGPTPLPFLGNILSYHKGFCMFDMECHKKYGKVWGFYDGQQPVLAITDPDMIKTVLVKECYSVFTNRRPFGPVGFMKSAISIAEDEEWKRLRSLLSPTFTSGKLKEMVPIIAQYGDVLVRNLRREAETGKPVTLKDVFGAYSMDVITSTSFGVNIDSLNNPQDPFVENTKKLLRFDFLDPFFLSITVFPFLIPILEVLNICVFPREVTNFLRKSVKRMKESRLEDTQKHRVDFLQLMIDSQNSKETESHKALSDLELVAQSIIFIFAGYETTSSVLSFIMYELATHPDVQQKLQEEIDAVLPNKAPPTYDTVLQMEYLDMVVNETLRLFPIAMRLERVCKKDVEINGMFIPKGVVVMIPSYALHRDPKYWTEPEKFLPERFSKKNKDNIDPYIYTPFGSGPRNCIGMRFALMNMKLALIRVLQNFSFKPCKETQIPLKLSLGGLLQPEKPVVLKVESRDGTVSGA

## NC(=O)C1(NC(=O)[C@@H]2CC3(CC(c4cccc(NC(=O)c5cc([N+](=O)[O-])cc([N+](=O)[O-])c5)c4)=NO3)CN2C(=O)c2ccccc2)CC1 (stereo partly drawn)
[1]
  AC50: 11.2 µM (inconclusive)

## COc1ccc2cc3cc(C(=O)NCCN4CCN(c5ccccc5F)CC4)oc3nc2c1
[2]
  AC50: 31.6 µM (inconclusive)
[1]
  AC50: 22.4 µM (inconclusive)

## Cc1ccc(Sc2ccc(CN3CCCC3)cc2[N+](=O)[O-])cc1
[3]
  EC50: 0.206 µM (active)
[4]
  EC50: > 60 µM (not active)

## COc1cc(OC)nc(Oc2ccccc2C(=O)Oc2cccc(C)c2)n1
[5]
  AC50: 17.8 µM (inconclusive)

## COc1ccccc1CNc1ccc2c(c1)CCC2
[3]
  EC50: 2.21 µM (active)
[4]
  EC50: > 60 µM (not active)

## CCCCNC(=O)c1ccc(NC(C)=O)c(Cl)c1
[6]
  EC50: > 150 µM (not active)
[7]
  EC50: > 150 µM (not active)
[8]
  EC50: > 150 µM (not active)

## CN(C)c1ccc(C2SCCN2C(=O)c2ccc([N+](=O)[O-])cc2)cc1 (stereo not drawn)
[3]
  EC50: 0.874 µM (active)
[4]
  EC50: > 30 µM (not active)

## CN1c2ccc([N+](=O)[O-])cc2CC2(C(=O)NC(=O)N(c3ccccc3)C2=O)C1c1ccccc1 (stereo not drawn)
[3]
  EC50: 1.94 µM (active)
[4]
  EC50: > 60 µM (not active)

## O=C(Nc1cccc(F)c1)N1CC2(CCNCC2)C1
[2]
  AC50: 7.94 µM (inconclusive)

## O=C1C(O)=C(C(C2=C(O)C(=O)c3ccccc3C2=O)c2ccc(Cl)cc2)C(=O)c2ccccc21
[5]
  AC50: 3.16 µM (inconclusive)
[2]
  AC50: 2.51 µM (inconclusive)
[1]
  AC50: 3.16 µM (inconclusive)

## COC(=O)c1cc(-c2ccc(Br)cc2)c2c(=O)[nH]c(=O)n(C)c2n1
[6]
  EC50: 2.45 µM (active)
[8]
  EC50: 5.63 µM (active)

## CCOC(=O)n1c(=O)n(Cc2c(Cl)cccc2Cl)c2ccccc21
[5]
  AC50: 15.8 µM (inconclusive)

## COc1cc(F)ccc1CN1CCC(n2nccc2NC(=O)C2CCOC2)CC1 (stereo not drawn)
[6]
  EC50: > 150 µM (not active)
[7]
  EC50: > 150 µM (not active)
[8]
  EC50: > 150 µM (not active)

## Cc1cccc(C)c1NC(=O)C(NC=O)c1ccccc1Cl (stereo not drawn)
[1]
  AC50: 12.6 µM (inconclusive)

## CN(C)c1ncc2nc(-c3ccccc3)c(=O)n(C[C@H]3CCCO3)c2n1
[5]
  AC50: 12.6 µM (inconclusive)
[2]
  AC50: 12.6 µM (inconclusive)
[1]
  AC50: 20 µM (inconclusive)

## C/C(=N/NS(=O)(=O)c1ccc(C)cc1)c1cccc(NC(=O)c2cccc(Cl)c2)c1
[2]
  AC50: 4.47 µM (inconclusive)

## COc1ccc(C(=O)N2CCC3(CCN(Cc4ccccc4OC)CC3)CC2)cc1
[2]
  AC50: 12.6 µM (inconclusive)

## O=c1c([N+](=O)[O-])cc(C(F)(F)F)cn1Cc1c(Cl)cccc1Cl
[2]
  AC50: 25.1 µM (inconclusive)
[1]
  AC50: 22.4 µM (inconclusive)

## O=c1cnc2cnc(N3CCOCC3)nc2n1Cc1ccc(F)cc1
[5]
  AC50: 12.6 µM (inconclusive)
[1]
  AC50: 25.1 µM (inconclusive)

## COc1ccc(-c2nc(NC(C)=O)sc2-c2ccc(OC)cc2)cc1
[6]
  EC50: 6.7 µM (active)
[7]
  EC50: 3.44 µM (active)
[8]
  EC50: 14.6 µM (active)

## CC(C)c1csc(CN2CCC(CO)(Cc3ccccc3)CC2)n1
[3]
  EC50: 0.891 µM (active)
[4]
  EC50: > 60 µM (not active)

## COc1cnc(-c2ccccc2)nc1Oc1cccc(C)c1
[1]
  AC50: 39.8 µM (inconclusive)

## O=C1C=C(NC(=O)Nc2ccc(Cl)c(Cl)c2)CCC1
[6]
  EC50: 18 µM (active)
[7]
  EC50: > 150 µM (not active)
[8]
  EC50: > 150 µM (not active)

## Cc1ccc(S(=O)(=O)N[C@H]2COC(=O)[C@@H](C)COC(=O)[C@H](C)NC(=O)C/C=C\[C@H]2C)cc1
[5]
  AC50: 3.98 µM (inconclusive)

## CCCOc1ccc(C(=O)NC(=S)N2CCN(c3cc4c(cc3F)c(=O)c(C(=O)O)cn4CC)CC2)cc1
[6]
  EC50: 4.62 µM (active)
[8]
  EC50: 6.47 µM (active)

## CCCCCCCNC(=O)C1(CC2CC(c3cccc(Br)c3)=NO2)CCN(C(=O)c2ccccc2)CC1 (stereo not drawn)
[3]
  EC50: 2.62 µM (active)
[4]
  EC50: > 60 µM (not active)

## CS(=O)(=O)N1CCC2(CC1)CN(C(=O)Nc1cccc(C#N)c1)C2
[5]
  AC50: 0.0251 µM (inconclusive)

## COc1ncc2nc(C)c(=O)n(CCc3ccccc3)c2n1
[5]
  AC50: 15.8 µM (inconclusive)
[1]
  AC50: 20 µM (inconclusive)

## COc1ccccc1CN1CCC2(CC1)CCN(C(=O)c1csnn1)CC2
[5]
  AC50: 31.6 µM (inconclusive)

## O=C(c1ccco1)N1CCC[C@@]2(CCN(Cc3ccncc3)C2)C1
[5]
  AC50: 15.8 µM (inconclusive)

## COc1ccc([C@@H](Nc2ncccn2)c2cc3c(cc2O)OCO3)cc1
[2]
  AC50: 6.31 µM (inconclusive)

## CCCCCCOC(=O)/C=C/c1c(C)nc(O)nc1O
[6]
  EC50: 0.604 µM (active)
[7]
  EC50: > 150 µM (not active)
[8]
  EC50: 4.6 µM (active)

## CNc1cc(-c2ccccc2C)ncn1
[2]
  AC50: 39.8 µM (inconclusive)

## Cc1ccc(CSCC(=O)N2CCN(c3ccc(F)cc3)CC2)cc1
[3]
  EC50: 2.18 µM (active)
[4]
  EC50: > 60 µM (not active)

## COc1ccc(-n2c(S)nnc2-c2cnccn2)cc1
[5]
  AC50: 14.1 µM (inconclusive)

## O=C(CCCCn1c(=O)c2ccccc2n(CC(=O)NC2CCCC2)c1=O)NC1CCCC1
[2]
  AC50: 14.1 µM (inconclusive)

## COc1ccc(C(=O)/C=C2/c3ccccc3CC(C)(C)N2C)cc1
[1]
  AC50: 20 µM (inconclusive)

## COc1cc(C=O)ccc1OCCOCCOc1ccccc1Cl
[2]
  AC50: 20 µM (inconclusive)

## Cc1sc(NC(=O)Cc2ccc3c(c2)OCO3)nc1-c1ccc2c(c1)CCN2C(=O)c1ccccc1F
[3]
  EC50: 1.69 µM (active)
[4]
  EC50: > 60 µM (not active)

## Cc1ccc(S(=O)(=O)NCc2ccccc2)cc1
[5]
  AC50: 31.6 µM (inconclusive)

## CCOC(=O)c1sc2ncnc(N3CCN(c4ccc(OC)cc4)CC3)c2c1C
[6]
  EC50: 7.62 µM (active)
[7]
  EC50: > 150 µM (not active)
[8]
  EC50: > 150 µM (not active)

## CC1CCC(C(C)C)C(OC(=O)C[n+]2cc(-c3ccc(Cl)cc3)n3c2CCC3)C1 (stereo not drawn)
[3]
  EC50: 0.144 µM (active)
[4]
  EC50: > 60 µM (not active)

## CCn1cc([N+](=O)[O-])c(C(=O)N2N=C(c3ccc4ccccc4c3)CC2c2cc(Br)ccc2O)n1 (stereo not drawn)
[3]
  EC50: 2.19 µM (active)
[4]
  EC50: > 60 µM (inconclusive)

## COc1cc(C)ccc1OCCCOc1ccccc1Br
[6]
  EC50: > 150 µM (not active)
[7]
  EC50: > 150 µM (not active)
[1]
  AC50: 39.8 µM (inconclusive)
[8]
  EC50: > 150 µM (not active)

## CCc1ccc(-c2cc(C)no2)cc1S(=O)(=O)Nc1cccc(CN2CCCC2)c1
[6]
  EC50: > 150 µM (not active)
[7]
  EC50: > 150 µM (not active)
[8]
  EC50: > 150 µM (not active)

## CCOc1ccc(-n2c(C)cc(/C=N/N(C)C)c2C)cc1
[3]
  EC50: 0.843 µM (active)
[4]
  EC50: > 30 µM (not active)

## CC(C)CN1CCC2(CC1)CCN(C(=O)Oc1ccccc1)CC2
[2]
  AC50: 20 µM (inconclusive)

## COc1ccccc1N1CC(C(=O)Nc2nnc(SCC(=O)NCC3CCCO3)s2)CC1=O (stereo not drawn)
[6]
  EC50: > 150 µM (not active)
[7]
  EC50: > 150 µM (not active)
[8]
  EC50: > 150 µM (not active)

## Oc1ccnc2cccc(Cc3ccccc3)c12
[5]
  AC50: 28.2 µM (inconclusive)
[2]
  AC50: 0.00708 µM (inconclusive)
[1]
  AC50: 15.8 µM (inconclusive)

## COC(=O)c1sc(N/N=C/c2ccc(C(C)C)cc2)nc1C
[3]
  EC50: 2.06 µM (active)
[4]
  EC50: > 60 µM (not active)

## COc1cccc(Nc2ncc3ncc(=O)n(C4CC4)c3n2)c1
[5]
  AC50: 6.31 µM (inconclusive)
[1]
  AC50: 15.8 µM (inconclusive)

## Cc1ccc(/C(=N\O)c2oc3c(C)c4oc(=O)cc(C)c4cc3c2C)cc1
[3]
  EC50: 1.23 µM (active)
[4]
  EC50: > 60 µM (not active)

## Cc1ccc2ncc([N+](=O)[O-])n2c1
[1]
  AC50: 0.708 µM (inconclusive)

## O=S(=O)(N/N=C\C=C\c1ccccc1)c1ccc(Br)cc1
[2]
  AC50: 22.4 µM (inconclusive)

## COc1ccc(C(=O)NC(=S)Nc2ccc(N3CCOCC3)c(Cl)c2)cc1[N+](=O)[O-]
[6]
  EC50: 1.73 µM (active)
[7]
  EC50: > 150 µM (not active)
[8]
  EC50: 19.3 µM (active)

## O=C(CC(=O)c1ccncc1)c1ccccc1
[2]
  AC50: 1.58 µM (inconclusive)
[1]
  AC50: 2 µM (inconclusive)

## C/C(=N\NC(=O)COc1ccc(C)cc1C(C)C)c1cc2ccccc2o1
[6]
  EC50: 15.5 µM (active)
[7]
  EC50: 30.5 µM (active)
[8]
  EC50: 24.1 µM (active)

## c1ccc(N2CC[C@@]3(CCCNC3)C2)nc1
[5]
  AC50: 15.8 µM (inconclusive)
